Measurements published in patent publication US4880783A, “Use of adenosine, hypoxanthine and ribose-containing solution for improved protection of the heart during surgery” (University of Virginia Alumnia Patents Foundation, priority 1988, dated 1989).

Columns and labels:
[1] = test system: isolated perfused rat heart; test: Recovery of left ventricular developed pressure in isolated perfused rat heart after 10 min total ischemia; design: % of Control Developed Pressure, 15' RP / % of Control Developed Pressure, 30' RP / % of Control Developed Pressure, 60' RP: concentration or dose not given beside the values; conditions: for % of Control Developed Pressure, 15' RP: 15' reperfusion; for % of Control Developed Pressure, 15' RP / % of Control Developed Pressure, 30' RP / % of Control Developed Pressure, 60' RP: 37° C., N ≥ 5; for % of Control Developed Pressure, 30' RP: 30' reperfusion; for % of Control Developed Pressure, 60' RP: 60' reperfusion; for contractile function of the isolated perfused rat heart: in words, after 10 minutes of total ischemia
Method: This hypothesis was also tested using the aforementioned isolated rat heart model. The effects of adenosine and hypoxanthine on the recovery of cardiac contractile function was assessed by the determination of left ventricular developed pressure during the post-ischemic reperfusion phase with the use of an intra-ventricular saline filled balloon.

[2] = test system: myocardial ATP (isolated perfused rat heart); test: Myocardial ATP in Langendorff isolated perfused rat heart before, during and after 10 min ischemia; conditions: 100 μM; for ATP, 10' Ischemia / ATP, 15' RP / ATP, 30' RP / ATP, 60' RP / ATP, Equilibration: 37° C., N ≥ 5; for ATP, 15' RP: 15' reperfusion; for ATP, 30' RP: 30' reperfusion; for ATP, 60' RP: 60' reperfusion; for ATP, Equilibration: pre-ischemic equilibration; for nucleotide pools (ATP) during ischemia and/or post-ischemic reperfusion: in words, isolated rat heart

Compound	% of Control Developed Pressure, 15' RP [1] [%]	% of Control Developed Pressure, 30' RP [1] [%]	% of Control Developed Pressure, 60' RP [1] [%]	contractile function of the isolated perfused rat heart [1]	ATP, 10' Ischemia [2]	ATP, 15' RP [2]	ATP, 30' RP [2]	ATP, 60' RP [2]	ATP, Equilibration [2]	nucleotide pools (ATP) during ischemia and/or post-ischemic reperfusion [2]
Nc1ncnc2c1ncn2[C@@H]1O[C@H](CO)[C@@H](O)[C@H]1O [Adenosine, adenosine]	86 ± 3	96 ± 3	95 ± 3	capable of restoring the contractile function	1.7 ± 0.1 μmoles/g wet weight	2.9 ± .08 μmoles/g wet weight	2.7 ± .08 μmoles/g wet weight	2.7 ± .06 μmoles/g wet weight	3.9 ± 0.4 μmoles/g wet weight	able to enhance nucleotide pools (ATP) during ischemia and/or during the post-ischemic reperfusion period
O=c1[nH]cnc2nc[nH]c12 [Hypoxanthine, hypoxanthine]	84 ± 5	88 ± 2	87 ± 3	capable of restoring the contractile function	1.4 ± .2 μmoles/g wet weight	2.7 ± .2 μmoles/g wet weight	2.7 ± .1 μmoles/g wet weight	2.3 ± .1 μmoles/g wet weight	3.4 ± .2 μmoles/g wet weight	able to enhance nucleotide pools (ATP) during ischemia and/or during the post-ischemic reperfusion period
